We go through 8 molecules from US12168006B2, “Cancer therapy by degrading dual MEK signaling” (The Board of Trustees of the University of Illinois, priority 2017, dated 2024).

“Also recorded” adds a separate entry of the source.

Data set [1] relates to Lyn. As to conditions: Ba/F3 cells; cited from earlier work.
In data set [2] the test system is AKT. The note with it: cited from earlier work.
The subject of data set [3] is H3122 cells. Put plainly: Long term experiments with EML4-ALK cell line. The note with it: for cytotoxic effect / cell proliferation: 8 days, PAC-1 2 μM, trametinib 5 nM.
Protocol: H3122 cells were seeded at 10,000 cells per well in 6 well plates and allowed to adhere overnight. […] Media was refreshed every 3-4 days with new compounds. At the end of the incubation period, cells were fixed 10% trichloroacetic acid, stained with SRB, imaged using GelDoc XR, and absorbance at 510 nm read using SpectraMax M3 (Molecular Devices) plate reader.
The test system of data set [4] is caspase-3/-7. Put plainly: Caspase-3/-7 activity assay. In kind it is cell-based, human.
Protocol: H3122 cells were seeded at 4,000 cells per well and allowed to adhere overnight. […] 10 μM raptinal was used as the positive control throughout the experiment. […] Plates were pre-incubated at 37° C. for 30 minutes in the SpectraMax M3 (Molecular Devices) plate reader and then read for 30 minutes at 3-minute intervals. Slopes for each well were calculated and averaged over six technical replicates. Activity is normalized to the maximal and minimal activity observed within the assay.
The target of data set [5] is MEK2 (MAP2K2) (Homo sapiens, UniProt P36507). As to conditions: at 1 μM; cited from earlier work.
Chain of MEK2 (MAP2K2) (P36507 whole entry, species assumed): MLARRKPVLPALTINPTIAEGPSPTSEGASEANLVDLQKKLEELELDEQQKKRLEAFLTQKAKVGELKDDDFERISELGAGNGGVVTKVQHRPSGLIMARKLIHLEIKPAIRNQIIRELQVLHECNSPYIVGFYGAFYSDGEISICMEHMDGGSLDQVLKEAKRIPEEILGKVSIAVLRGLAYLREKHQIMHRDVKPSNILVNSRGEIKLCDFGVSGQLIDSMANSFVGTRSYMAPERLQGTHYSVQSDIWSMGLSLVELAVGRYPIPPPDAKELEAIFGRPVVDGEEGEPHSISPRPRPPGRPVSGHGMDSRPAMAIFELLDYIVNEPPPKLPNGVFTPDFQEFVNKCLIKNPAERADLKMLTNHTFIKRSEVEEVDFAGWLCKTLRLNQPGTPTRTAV
The test system of data set [6] is CaMKII. As to conditions: cited from earlier work.
Data set [7] deals with CK2. The note with it: cited from earlier work.
The target of data set [8] is PKCδ (Homo sapiens, UniProt Q05655). As to conditions: cited from earlier work.
Chain of PKCδ (Q05655 whole entry): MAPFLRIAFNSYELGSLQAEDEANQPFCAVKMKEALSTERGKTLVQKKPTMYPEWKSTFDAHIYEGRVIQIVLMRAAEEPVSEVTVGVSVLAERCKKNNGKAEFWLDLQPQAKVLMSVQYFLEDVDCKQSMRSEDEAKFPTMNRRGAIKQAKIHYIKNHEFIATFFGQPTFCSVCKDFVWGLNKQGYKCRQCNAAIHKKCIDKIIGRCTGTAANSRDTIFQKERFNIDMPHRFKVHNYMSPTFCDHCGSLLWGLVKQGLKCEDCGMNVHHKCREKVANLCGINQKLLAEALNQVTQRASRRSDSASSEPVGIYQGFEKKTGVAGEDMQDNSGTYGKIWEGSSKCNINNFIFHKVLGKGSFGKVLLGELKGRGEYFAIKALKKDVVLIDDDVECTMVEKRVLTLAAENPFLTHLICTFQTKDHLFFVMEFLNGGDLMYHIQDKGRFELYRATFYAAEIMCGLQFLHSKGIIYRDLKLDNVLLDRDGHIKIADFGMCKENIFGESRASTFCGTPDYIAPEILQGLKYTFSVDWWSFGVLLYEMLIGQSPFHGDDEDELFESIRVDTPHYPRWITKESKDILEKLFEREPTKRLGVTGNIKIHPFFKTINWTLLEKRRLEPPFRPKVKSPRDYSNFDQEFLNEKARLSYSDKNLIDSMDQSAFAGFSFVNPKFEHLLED
Data set [9] concerns the target Fyn (Homo sapiens, UniProt P06241). The note with it: at 1 μM; cited from earlier work.
The target of data set [10] is ERK1/2 (MAPK1) (Homo sapiens, UniProt P28482). The note with it: cited from earlier work.
Chain of ERK1/2 (MAPK1) (P28482 2-360 limits assumed): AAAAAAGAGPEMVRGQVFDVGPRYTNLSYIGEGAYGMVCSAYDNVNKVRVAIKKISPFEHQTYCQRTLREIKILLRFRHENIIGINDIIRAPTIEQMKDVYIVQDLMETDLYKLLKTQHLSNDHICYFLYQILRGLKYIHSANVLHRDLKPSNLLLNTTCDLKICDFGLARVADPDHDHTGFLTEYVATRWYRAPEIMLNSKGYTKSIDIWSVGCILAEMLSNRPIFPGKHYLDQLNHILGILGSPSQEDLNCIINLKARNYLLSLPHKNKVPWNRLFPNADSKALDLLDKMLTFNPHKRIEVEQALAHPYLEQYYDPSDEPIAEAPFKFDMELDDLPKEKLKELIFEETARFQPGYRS
The target of data set [11] is CDK1 (Homo sapiens, UniProt P06493). The note with it: at 1 μM; cited from earlier work.
Chain of CDK1 (P06493 whole entry, species assumed): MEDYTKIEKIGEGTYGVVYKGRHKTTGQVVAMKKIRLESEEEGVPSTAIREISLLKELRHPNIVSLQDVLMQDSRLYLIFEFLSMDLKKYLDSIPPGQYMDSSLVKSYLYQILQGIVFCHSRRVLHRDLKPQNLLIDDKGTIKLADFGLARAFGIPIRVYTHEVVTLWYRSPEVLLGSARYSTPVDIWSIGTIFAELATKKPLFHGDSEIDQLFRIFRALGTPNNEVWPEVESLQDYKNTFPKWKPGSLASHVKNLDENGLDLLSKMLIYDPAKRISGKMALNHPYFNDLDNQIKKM
Chain of CDK1 (P14635 whole entry partner, species assumed): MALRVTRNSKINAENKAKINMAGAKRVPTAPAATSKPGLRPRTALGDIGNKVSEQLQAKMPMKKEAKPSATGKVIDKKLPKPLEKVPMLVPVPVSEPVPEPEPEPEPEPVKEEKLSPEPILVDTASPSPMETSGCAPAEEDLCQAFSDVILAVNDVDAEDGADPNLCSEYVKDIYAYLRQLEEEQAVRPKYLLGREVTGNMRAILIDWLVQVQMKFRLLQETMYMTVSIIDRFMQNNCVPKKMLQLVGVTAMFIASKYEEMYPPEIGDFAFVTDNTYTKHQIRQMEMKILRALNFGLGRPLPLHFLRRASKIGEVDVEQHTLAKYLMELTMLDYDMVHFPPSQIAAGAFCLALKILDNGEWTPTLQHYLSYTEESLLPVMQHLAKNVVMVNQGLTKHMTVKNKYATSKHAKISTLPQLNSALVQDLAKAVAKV
Data set [12] addresses DYRK1A (Homo sapiens, UniProt Q13627). The note with it: at 1 μM; cited from earlier work.
Data set [13] has as its target PKCζ (Homo sapiens, UniProt Q05513). The note with it: cited from earlier work.
Data set [14] relates to PKA. The note with it: cited from earlier work.
The subject of data set [15] is H1975 cells. Briefly: Long term experiments with EGFR^T790M cell lines. The method, then:
(§1) In 12 well plates, PC-9 GR or H1975 cells were seeded at 2,000 cells per well and allowed to adhere overnight.

The test system of data set [16] is PC-9 GR cells. Briefly: Long term experiments with EGFR^T790M cell lines. On the procedure:
as §1

For data set [17], the system named is BRAF^V600E melanoma, EGFR^T790M, and EML4-ALK NSCLCs. Put plainly: Delay of acquired resistance, summary of long term experiments. In kind it is cell-based, human. The note with it: added to the kinase inhibitor. The method, then:
(§2) This assay was performed as described previously. Briefly, 100-250 cells were seeded and allowed to adhere overnight. […] Media was refreshed with new compounds added every 3-4 days.

For data set [18], the system named is MEK1 and MEK2 kinases. Put plainly: Immunoblotting of procaspase-3, MEK1 and MEK2 levels. In kind it is cell-based, human. As to conditions: Q-VD-OPh 25 μM added concurrently; 48 hours; A375, PC-9 GR, H3122.
Protocol: Cells were lysed using RIPA buffer containing phosphatase (BioVision) and protease inhibitor cocktail (Calbiochem). Protein concentration was determined using the BCA assay (Pierce). Cell lysates containing 8-20 μg of protein were loaded into each lane of 4-20% gradient gels (BioRad) and ran for SDS-PAGE. Proteins were transferred onto PDVF membrane (Millipore) for Western blot analysis. Blots were blocked with BSA for one hour followed by incubation with primary antibody overnight (manufacturer's recommended dilutions). Secondary antibody was incubated for one hour. Blots were then imaged with a ChemiDoc Touch after incubation with SuperSignal West Pico Solution following manufacturer's protocols.
The subject of data set [19] is A375, PC-9 GR, H3122, K-562 cells. Briefly: Q-VD-OPh protection by flow cytometry. It is filed as cell-based, human. As to conditions: Q-VD-OPh 25 μM added concurrently; 48 hours. On the procedure:
A375 (BRAF^V600E) cells were seeded with 70,000 cells/well in 12-well plates and allowed to adhere overnight. The next day, indicated concentrations of PAC-1, vemurafenib, trametinib, and/or Q-VD-OPh were added and cells were incubated at 37° C. for 48 hours. […] The next day, they were incubated with PAC-1, ceritinib, and/or Q-VD-OPh for 48 hours. K-562 cells were seeded with 35,000 cells/well in 12-well plates.

In data set [20] the test system is A375 cells. Put plainly: Long term experiments in BRAF^V600E cell lines. It is filed as cell-based, human. The note with it: continuous treatment. On the procedure: as §2
For data set [21], the system named is PC-9 GR and H1975 cells. Put plainly: Cell viability assay (SRB). It is filed as cell-based, human. As to conditions: 5-day incubation.
Protocol: Final concentration of DMSO in each well is 0.5%. At the end of 5 days, viability was assessed by the sulforhodamine B (SRB) assay sulforhodamine B (SRB) assay. Briefly, 100 μL of 10% trichloroacetic acid (TCA) was added in each well and the plate was incubated for at least 1 hour at 4° C. After the 4° C. incubation, the plate was washed with water and allowed to dry for at least 1 hour at room temperature. 100 μL of SRB dye (1% w/v) was added to each well and incubated for 30 minutes at room temperature. At the end of the 30 minutes incubation, the plate was washed with 1% acetic acid solution and allowed to dry at room temperature. Finally, 200 μL of Tris solution (pH>10) was added to each well to dissolve the SRB dye. The absorbance of each well was read with a SpectraMax M3 plate reader (Molecular Devices) at 510 nm.
[22] abbreviates: H1975 NSCLC cells, PAC-1 5 μM, up to 48 h.
Setting [23] is: PC-9 GR NSCLC cells, PAC-1 5 μM, up to 48 h.

Chain of Fyn (P06241 whole entry, species assumed): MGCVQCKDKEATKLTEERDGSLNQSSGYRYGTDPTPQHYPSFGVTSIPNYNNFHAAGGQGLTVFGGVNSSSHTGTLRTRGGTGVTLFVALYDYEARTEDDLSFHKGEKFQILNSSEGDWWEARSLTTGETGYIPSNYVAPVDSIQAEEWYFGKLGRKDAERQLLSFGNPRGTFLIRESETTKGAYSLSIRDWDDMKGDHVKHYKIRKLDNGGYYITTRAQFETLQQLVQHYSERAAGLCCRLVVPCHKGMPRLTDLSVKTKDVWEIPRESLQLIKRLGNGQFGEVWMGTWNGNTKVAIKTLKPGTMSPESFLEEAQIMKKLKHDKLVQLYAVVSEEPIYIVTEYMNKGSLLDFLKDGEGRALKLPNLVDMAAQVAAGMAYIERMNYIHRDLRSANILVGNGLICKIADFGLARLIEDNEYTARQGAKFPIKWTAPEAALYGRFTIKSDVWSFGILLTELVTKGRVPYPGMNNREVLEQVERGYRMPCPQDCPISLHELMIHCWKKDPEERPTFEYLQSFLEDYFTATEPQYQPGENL
Chain of PKCζ (Q05513 whole entry): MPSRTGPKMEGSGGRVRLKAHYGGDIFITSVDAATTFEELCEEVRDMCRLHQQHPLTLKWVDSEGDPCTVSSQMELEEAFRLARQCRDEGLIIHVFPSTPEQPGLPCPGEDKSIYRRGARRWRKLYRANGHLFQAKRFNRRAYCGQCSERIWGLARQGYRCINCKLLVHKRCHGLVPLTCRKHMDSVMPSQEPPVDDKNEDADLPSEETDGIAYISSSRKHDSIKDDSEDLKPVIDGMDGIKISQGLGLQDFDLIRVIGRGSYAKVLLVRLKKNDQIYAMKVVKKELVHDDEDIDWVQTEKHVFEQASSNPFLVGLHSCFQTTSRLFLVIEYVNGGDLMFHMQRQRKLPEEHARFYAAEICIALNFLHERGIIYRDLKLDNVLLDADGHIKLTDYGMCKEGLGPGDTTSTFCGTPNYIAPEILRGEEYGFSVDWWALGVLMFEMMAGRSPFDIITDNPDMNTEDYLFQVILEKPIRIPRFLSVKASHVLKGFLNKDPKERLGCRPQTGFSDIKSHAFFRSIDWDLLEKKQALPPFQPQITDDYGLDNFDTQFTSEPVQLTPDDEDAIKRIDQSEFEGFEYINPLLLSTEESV

Turning to `Cc1cc(Nc2ncc(Cl)c(Nc3ccccc3S(=O)(=O)C(C)C)n2)c(OC(C)C)cc1C1CCNCC1` [Ceritinib], the IC50 in [1] is 2.31 µM; in data set [2], above 10 µM. The “cytotoxic effect / cell proliferation” value in data set [3] was “effective in inhibiting cell proliferation”. In addition, the resistant clones result in data set [3] (20 days of treatment) is given as “Resistant clones were visible”; in data set [3] (32 days of treatment), “dramatic increase”.

As for `Cc1ccc(NC(=O)c2ccc(CN3CCN(C)CC3)cc2)cc1Nc1nccc(-c2cccnc2)n1` [Imatinib], the caspase-3 activity entry in data set [4] (K-562 cells, PAC-1 7.5 μM) was “negligible single-agent activity”. Moreover, the “% Inhibition of MEK2 (MAP2K2)” value in [5] was 5.9% at 1 μM. Further, in data set [6], the “Inhibition of CaMKII (in words)” value is “Not observed”. In addition, in data set [7], the “Inhibition of CK2 (in words)” value is given as “Not observed”. The “Inhibition of PKCδ (in words)” value in data set [8] is given as “Not observed”. Besides, in [9], the “% Inhibition of Fyn” value is reported as 29.6% at 1 μM. Besides, the “Inhibition of ERK1/2 (MAPK1) (in words)” value in data set [10] was “Not observed”. In addition, the “% Inhibition of CDK1” value in data set [11] is recorded as 1.8% at 1 μM. In data set [12], the “% Inhibition of DYRK1A” value was 2.2% at 1 μM. Also, the “Inhibition of PKCζ (in words)” value in data set [13] is recorded as “Not observed”. In addition, in [14], the “Inhibition of PKA (in words)” value is listed as “Not observed”.

On to `C=CC(=O)Nc1cc(Nc2nccc(-c3cn(C)c4ccccc34)n2)c(OC)cc1N(C)CCN(C)C` [Osimertinib], for which the caspase-3 activity result in data set [4] (setting [22]) and in data set [4] (setting [23]) was “Negligible increases” each time. For the same molecule, the “cytotoxic effect / cell proliferation” value in [15] is “very effective”; in data set [16] (8 days, PAC-1 2 μM, osimertinib 30 nM, trametinib 5 nM) it was “very effective; also recorded: effective in inhibiting cell proliferation”. The values for the resistant clones entry in [15] and in [16] were “clearly visible” and “clearly visible; also recorded: resistant clones were visible; also recorded: dramatic increase”, respectively.

Take `C=CCc1cccc(/C=N/NC(=O)CN2CCN(Cc3ccccc3)CC2)c1O` [PAC-1]: the caspase-3 activity result in data set [4] (setting [22]) is “Negligible increases”; in data set [4] (K-562 cells, PAC-1 7.5 μM), “negligible single-agent activity”; in data set [4] (setting [23]), “Negligible increases”. Also, in data set [17], the “concentration effective in delaying acquired resistance to vemurafenib, osimertinib, and ceritinib” value is 1 to 2 µM.

Consider `CC(C)[C@H](NC(=O)c1ccc2ccccc2n1)C(=O)N[C@@H](CC(=O)O)C(=O)COc1c(F)cccc1F` [Q-VD-OPh], for which, in [18], the “MEK1/2 cleavage in cells treated with PAC-1/drug combinations” value is “attenuated”. The “apoptotic cell death in cells treated with PAC-1/drug combinations” value in data set [19] is reported as “protection”.

In the case of `CCCS(=O)(=O)Nc1ccc(F)c(C(=O)c2c[nH]c3ncc(-c4ccc(Cl)cc4)cc23)c1F` [Vemurafenib], the “time at which resistant colonies were first seen” value in data set [20] came out at 20 days.

With `COc1cc2ncnc(Nc3ccc(F)c(Cl)c3)c2cc1OCCCN1CCOCC1` [gefitinib], in data set [21], the “activity in PC-9 GR and H1975 cells (FIG. 7A)” value is “inactive”.

In the case of `CC(=O)Nc1cccc(-n2c(=O)n(C3CC3)c(=O)c3c(Nc4ccc(I)cc4F)n(C)c(=O)c(C)c32)c1` [trametinib], in data set [3], the “cytotoxic effect / cell proliferation” value is reported as “minimal cytotoxic effect”.
